# In patent US6174858A, “Conjugates useful in the treatment of prostate cancer” (Merck & Co., Inc., priority 1998, dated 2001):
# Like-named read-outs stand apart in the source and are kept apart here. Square brackets hold non-standard residues; d marks the D form. dAc‑VIN = 4-desacetylvinblastine; Chg = N[C@H](C(=O)O)C1CCCCC1
# Legend:
# [1] = target: T1, free PSA (York PSA) (Homo sapiens, UniProt P07288); assay: Recognition of oligopeptide-vinca drug conjugates by free PSA (time to 50% cleavage, HPLC); type: biochemical; settings: for Time to 50% Substrate Cleavage by York PSA: conjugate to PSA molar ratio 100 to 1, pH 7.4
# T1 construct: purchased York ('York PSA')
# T1 sequence (P07288 25-261): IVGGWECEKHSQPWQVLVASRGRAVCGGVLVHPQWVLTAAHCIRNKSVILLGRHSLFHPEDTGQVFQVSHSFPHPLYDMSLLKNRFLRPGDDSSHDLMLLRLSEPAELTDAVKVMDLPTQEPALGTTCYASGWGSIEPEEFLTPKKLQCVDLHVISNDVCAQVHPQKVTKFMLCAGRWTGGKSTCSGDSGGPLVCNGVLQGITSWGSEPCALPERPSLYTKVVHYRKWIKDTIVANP
# Protocol: The reaction was quenched after various reaction times by the addition of trifluoroacetic acid (TFA) to a final 1% (volume/volume). Alternatively the reaction is quenched with 10 mM ZnCl2. The quenched reaction was analyzed by HPLC on a reversed-phase C18 column using an aqueous 0.1%TFA/acetonitrile gradient. The amount of time (in minutes) required for 50% cleavage of the noted oligopeptide-cytotoxic agent conjugates with enzymatically active free PSA were then calculated.
# [2] = tested on: LNCaP prostate tumor cells; assay: In vitro cytotoxicity, Alamar Blue assay, LNCaP cell kill; type: cell-based
# Protocol: (§1) In vitro Assay of Cytotoxicity of Peptidyl Derivatives of Vinca Drugs
# (§2) Specifically, cell cultures of LNCap prostate tumor cells, Colo32ODM cells (designated C320) or T47D cells in 96 well plates was diluted with medium containing various concentrations of a given conjugate (final plate well volume of 200 μl). […] The cells were incubated for 3 days at 37° C., 20 μl of Alamar Blue is added to the assay well. The cells were further incubated and the assay plates were read on a EL-310 ELISA reader at the dual wavelengths of 570 and 600 nm at 4 and 7 hours after addition of Alamar Blue. Relative percentage viability at the various concentration of conjugate tested was then calculated versus control (no conjugate) cultures and an EC50 was determined. Unless otherwise indicated, the acetate salt of the conjugate was tested.
# [3] = tested on: Colo320DM cells; assay: In vitro cytotoxicity, Alamar Blue assay, Colo320DM control cell line (does not express free PSA); type: cell-based
# Protocol: as §1
# as §2, with “The cytotoxicities of the cleaveable oligopeptide-vinca drug conjugates, prepared as described in Example 3, against a line of cells which is known to be killed by unmodified vinca drug was assessed with an Alamar Blue assay. Specifically,” for “Specifically,”
# [4] = 72 HRS, read-out: LNCaP Cell Kill in 72 HRS. {48 HRS} EC 50
# [5] = 72 HRS, read-out: Colo320DM EC 50
# [6] = 72 HRS, second part of Table 2, read-out: LNCaP Cell Kill in 72 HRS. {48 HRS} EC 50
# [7] = 72 HRS, second part of Table 2, read-out: Colo320DM EC 50
Substance,Time to 50% Substrate Cleavage by York PSA [1],"EC50 [2, 4]","EC50 ([2]; in 0.5% FBS, read-out: LNCaP Cell Kill EC 50 in 0.5% FBS)","EC50 [3, 5]","EC50 ([3]; in 0.5% FBS, read-out: Colo320DM EC 50 in 0.5% FBS)","EC50 [2, 6]","EC50 [3, 7]","Substrate cleavage by York PSA, 10 X ENZ o/n ([1]; 10 X ENZ, o/n)"
"4-O-(Ac-Abu-SSChgQ-SP)-dAc-VIN: peptide-vinca drug conjugate, SEQ ID NO 90 (XSSXQSP; N-acetyl; desacetylvinblastine conjugate)",80 min,9.7 µM,> 5 µM,14.5 µM,23.8 µM,–,–,–
"4-O-(Ac-SChgQ-SSP)-dAc-VIN: peptide-vinca drug conjugate, SEQ ID NO 116 (XXQSSP; N-acetyl; desacetylvinblastine conjugate)",15 min,–,–,–,–,15 µM,20 µM,–
"4-O-(Ac-SSChgQS-Gly)-(dAc)-VIN: peptide-vinca drug conjugate, SEQ ID NO 98 (Ac-SS[Chg]QSG-{dAc‑VIN}; also: C-terminal ester to 4-OH of desacetylvinblastine)",55 min,16.3 µM,–,16.3 µM,–,–,–,–
"4-O-[Ac-4-trans-L-HypSSChg(dQ)SSP]-dAc-VIN: peptide-vinca drug conjugate, SEQ ID NO 114 (XSSXXSSP; N-acetyl; D-Gln; desacetylvinblastine conjugate)",–,–,–,–,–,12.2 µM,43.7 µM,0%
"4-O-[Ac-4-trans-L-HypSSChgQSS-Pip]-dAc-VIN: peptide-vinca drug conjugate, SEQ ID NO 124 (XSSXQSSX; N-acetyl; desacetylvinblastine conjugate)",13 min,–,–,–,–,7.5 µM,60 µM,–
"4-O-[Ac--SChgQSS-Sar]-dAc-VIN: peptide-vinca drug conjugate, SEQ ID NO 118 (XXQSSG; N-acetyl; desacetylvinblastine conjugate)",39 min,–,–,–,–,0.8 µM,3 µM,–
"Ac-4-trans-L-HypSSChgQS-(4-O-Ala)-(dAc)-VIN: peptide-vinca drug conjugate, SEQ ID NO 103 (XSSXQSA; N-acetyl; desacetylvinblastine conjugate)",23 min,–,–,–,–,12.5 µM,32.5 µM,–
"Ac-AbuSSChgQ-SS-(4-O-P)-dAc-VIN: peptide-vinca drug conjugate, SEQ ID NO 109 in Table 1, 108 in Table 2 (XSSXQSSP; N-acetyl; desacetylvinblastine conjugate)",7 min,–,–,–,–,12.8 µM,28.4 µM,–
des-Acetylvinblastine-4-O-(N-Acetyl-4-trans-L-Hyp-Ser-Ser Chg-Gln-Ser-Ser-Pro) ester acetate (XSSXQSSP; N-acetyl; desacetylvinblastine ester; acetate salt),17 min,3 µM,–,12 µM,–,–,–,–
